The values that follow come from patent US8445501B2, “Substituted 7-carboxamido-pyrrolo[3,2-d]pyrimidines” (Takeda GmbH, priority 2008, dated 2013).

Structures are written as SMILES.

The target in this experiment is T1, human PDE5 (Homo sapiens, UniProt O76074).
T1 construct: from tissue; host or cells: platelets from fresh blood of human donors (lysate, 10,000 g supernatant)
The experiment can be described thus: Inhibition of the type 5 phosphodiesterase (PDE5) activity, modified SPA test with platelet lysate. The class given is biochemical. As to conditions: PDE5 from human platelet lysate, 0.5 μM cGMP. Put shortly: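 SPA-based cGMP hydrolysis, [3H]cGMP tracer in 0.5 μM cGMP, by sonicated human platelet lysate; motapizone (1 μM) and a PDE2 inhibitor (10 nM) block other PDEs. Reaction 15 min at 37 °C after 5 min preincubation, quenched with beads containing IBMX. IC50 from concentration-effect curves.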
The compound `C[C@H](O)C(=O)N1CC[C@@H](NC(=O)c2c[nH]c3c(-c4c(OCC5CC5)ccc5c4OCO5)ncnc23)C1` [Example 181, 4-(5-Cyclopropylmethoxy-benzo[1,3]dioxol-4-yl)-5H-pyrrolo[3,2-d]pyrimidine-7-carboxylic acid [(R)-1-((S)-2-hydroxy-propanoyl)-pyrrolidin-3-yl]amide] had an IC50 of 0.589 nM.
For `O=C(N[C@@H]1CCN(C(=O)C2(O)CC2)C1)c1c[nH]c2c(-c3c(OCC4CC4)ccc4c3OCO4)ncnc12` [Example 182, 4-(5-Cyclopropylmethoxy-benzo[1,3]dioxol-4-yl)-5H-pyrrolo[3,2-d]pyrimidine-7-carboxylic acid {(R)-1-[1-(1-hydroxy-cyclopropyl)-methanoyl]-pyrrolidin-3-yl}-amide], it took 0.479 nM to reach half-maximal inhibition (IC50).
Then `O=C(N[C@H]1CCN(C(=O)CO)C1)c1c[nH]c2c(-c3c(OCC4CC4)ccc4c3OCO4)ncnc12` [Example 183, 4-(5-Cyclopropylmethoxy-benzo[1,3]dioxol-4-yl)-5H-pyrrolo[3,2-d]pyrimidine-7-carboxylic acid [(S)-1-(2-hydroxy-ethanoyl)-pyrrolidin-3-yl]amide], with 1.86 nM.
Consider `C[C@H](O)C(=O)N1CC[C@H](NC(=O)c2c[nH]c3c(-c4c(OCC5CC5)ccc5c4OCO5)ncnc23)C1` [Example 184, 4-(5-Cyclopropylmethoxy-benzo[1,3]dioxol-4-yl)-5H-pyrrolo[3,2-d]pyrimidine-7-carboxylic acid [(S)-1-((S)-2-hydroxy-propanoyl)-pyrrolidin-3-yl]amide], for which the IC50 was 3.16 nM.
In the case of `O=C(N[C@H]1CCN(C(=O)C2(O)CC2)C1)c1c[nH]c2c(-c3c(OCC4CC4)ccc4c3OCO4)ncnc12` [Example 185, 4-(5-Cyclopropylmethoxy-benzo[1,3]dioxol-4-yl)-5H-pyrrolo[3,2-d]pyrimidine-7-carboxylic acid {(S)-1-[1-(1-hydroxy-cyclopropyl)-methanoyl]-pyrrolidin-3-yl}-amide], the midpoint of inhibition, the IC50, lay at 2.04 nM.
As to `O=C(NCC1CCN(C(=O)CO)CC1)c1c[nH]c2c(-c3c(OCC4CC4)ccc4c3OCO4)ncnc12` [Example 186, 4-(5-Cyclopropylmethoxy-benzo[1,3]dioxol-4-yl)-5H-pyrrolo[3,2-d]pyrimidine-7-carboxylic acid [1-(2-hydroxy-ethanoyl)-piperidin-4-ylmethyl]-amide], half-maximal inhibition (IC50) was put at 0.55 nM.
The result for `C[C@H](O)C(=O)N1CCC(CNC(=O)c2c[nH]c3c(-c4c(OCC5CC5)ccc5c4OCO5)ncnc23)CC1` [Example 187, 4-(5-Cyclopropylmethoxy-benzo[1,3]dioxol-4-yl)-5H-pyrrolo[3,2-d]pyrimidine-7-carboxylic acid [1-((S)-2-hydroxy-propanoyl)piperidin-4-ylmethyl]-amide] reads 0.457 nM.
Then `O=C(NCC1CCN(C(=O)C2(O)CC2)CC1)c1c[nH]c2c(-c3c(OCC4CC4)ccc4c3OCO4)ncnc12` [Example 188, 4-(5-Cyclopropylmethoxy-benzo[1,3]dioxol-4-yl)-5H-pyrrolo[3,2-d]pyrimidine-7-carboxylic acid {1-[1-(1-hydroxy-cyclopropyl)-methanoyl]-piperidin-4-ylmethyl}-amide], with 0.513 nM; and `O=C(NCC1CCCN(C(=O)CO)C1)c1c[nH]c2c(-c3c(OCC4CC4)ccc4c3OCO4)ncnc12` (stereo not shown) [Example 189, 4-(5-Cyclopropylmethoxy-benzo[1,3]dioxol-4-yl)-5H-pyrrolo[3,2-d]pyrimidine-7-carboxylic acid [1-(2-hydroxy-acetyl)piperidin-3-ylmethyl]-amide], with 0.389 nM; and `C[C@H](O)C(=O)N1CCCC(CNC(=O)c2c[nH]c3c(-c4c(OCC5CC5)ccc5c4OCO5)ncnc23)C1` (stereo partly drawn) [Example 190, 4-(5-Cyclopropylmethoxy-benzo[1,3]dioxol-4-yl)-5H-pyrrolo[3,2-d]pyrimidine-7-carboxylic acid [1-((S)-2-hydroxy-propionyl)piperidin-3-ylmethyl]-amide], with 0.251 nM.
In turn, `O=C(NCC1CCN(C(=O)CO)C1)c1c[nH]c2c(-c3c(OCC4CC4)ccc4c3OCO4)ncnc12` (stereo not shown) [Example 191, 4-(5-Cyclopropylmethoxy-benzo[1,3]dioxol-4-yl)-5H-pyrrolo[3,2-d]pyrimidine-7-carboxylic acid [1-(2-hydroxy-acetyl)pyrrolidin-3-ylmethyl]-amide] had an IC50 of 1.02 nM.
On to `C[C@H](O)C(=O)N1CCC(CNC(=O)c2c[nH]c3c(-c4c(OCC5CC5)ccc5c4OCO5)ncnc23)C1` (stereo partly drawn) [Example 192, 4-(5-Cyclopropylmethoxy-benzo[1,3]dioxol-4-yl)-5H-pyrrolo[3,2-d]pyrimidine-7-carboxylic acid [1-((S)-2-hydroxy-propionyl)pyrrolidin-3-ylmethyl]-amide], for which inhibition was half-maximal at 0.832 nM (IC50).
The result for `O=C(NCC1CN(C(=O)CO)CCO1)c1c[nH]c2c(-c3c(OCC4CC4)ccc4c3OCO4)ncnc12` (stereo not shown) [Example 193, 4-(5-Cyclopropylmethoxy-benzo[1,3]dioxol-4-yl)-5H-pyrrolo[3,2-d]pyrimidine-7-carboxylic acid [4-(2-hydroxy-acetyl)morpholin-2-ylmethyl]-amide] reads 1.07 nM; that for `C[C@H](O)C(=O)N1CCOC(CNC(=O)c2c[nH]c3c(-c4c(OCC5CC5)ccc5c4OCO5)ncnc23)C1` (stereo partly drawn) [Example 194, 4-(5-Cyclopropylmethoxy-benzo[1,3]dioxol-4-yl)-5H-pyrrolo[3,2-d]pyrimidine-7-carboxylic acid [4-((S)-2-hydroxy-propionyl)-morpholin-2-ylmethyl]-amide], 0.832 nM.
The result for `O=C(NC1CN(C(=O)CO)C1)c1c[nH]c2c(-c3c(OCC4CC4)ccc4c3OCO4)ncnc12` [Example 195, 4-(5-Cyclopropylmethoxy-benzo[1,3]dioxol-4-yl)-5H-pyrrolo[3,2-d]pyrimidine-7-carboxylic acid [1-(2-hydroxy-ethanoyl)-azetidin-3-yl]-amide] reads 1.32 nM; that for `C[C@H](O)C(=O)N1CC(NC(=O)c2c[nH]c3c(-c4c(OCC5CC5)ccc5c4OCO5)ncnc23)C1` [Example 196, 4-(5-Cyclopropylmethoxy-benzo[1,3]dioxol-4-yl)-5H-pyrrolo[3,2-d]pyrimidine-7-carboxylic acid [1-((S)-2-hydroxy-propanoyl)azetidin-3-yl]-amide], 0.759 nM.
The result for `C[C@H](O)C(=O)N1CCC[C@H](NC(=O)c2c[nH]c3c(-c4c(OCC5CC5)ccc5c4OCO5)ncnc23)C1` [Example 197, 4-(5-Cyclopropylmethoxy-benzo[1,3]dioxol-4-yl)-5H-pyrrolo[3,2-d]pyrimidine-7-carboxylic acid [(S)-1-((S)-2-hydroxy-propanoyl)piperidin-3-yl]-amide] reads 0.851 nM; that for `C[C@H](O)C(=O)N1CCC[C@@H](NC(=O)c2c[nH]c3c(-c4c(OCC5CC5)ccc5c4OCO5)ncnc23)C1` [Example 198, 4-(5-Cyclopropylmethoxy-benzo[1,3]dioxol-4-yl)-5H-pyrrolo[3,2-d]pyrimidine-7-carboxylic acid [(R)-1-((S)-2-hydroxy-propanoyl)piperidin-3-yl]-amide], 0.617 nM.
`COc1ccc(-c2ncnc3c(C(=O)N[C@H]4CC[C@H](NC(=O)CO)CC4)c[nH]c23)c(OCC2CC2)c1` [Example 199, trans-4-(2-Cyclopropylmethoxy-4-methoxy-phenyl)-5H-pyrrolo[3,2-d]pyrimidine-7-carboxylic acid [4-(2-hydroxy-acetylamino)-cyclohexyl]-amide]: the midpoint of inhibition, the IC50, lay at 0.589 nM.
Then `COc1ccc(-c2ncnc3c(C(=O)N[C@H]4CC[C@H](NC(=O)[C@H](C)O)CC4)c[nH]c23)c(OCC2CC2)c1` [Example 200, trans-4-(2-Cyclopropylmethoxy-4-methoxy-phenyl)-5H-pyrrolo[3,2-d]pyrimidine-7-carboxylic acid [4-((S)-2-hydroxy-propionylamino)-cyclohexyl]-amide], with 0.479 nM.
Then `COc1ccc(-c2ncnc3c(C(=O)N[C@H]4CC[C@H](NC(=O)C5(O)CC5)CC4)c[nH]c23)c(OCC2CC2)c1` [Example 201, trans-4-(2-Cyclopropylmethoxy-4-methoxy-phenyl)-5H-pyrrolo[3,2-d]pyrimidine-7-carboxylic acid {4-[(1-hydroxy-cyclopropanecarbonyl)-amino]-cyclohexyl}-amide], with 0.407 nM; and `COc1ccc(-c2ncnc3c(C(=O)N[C@H]4CC[C@@H](NC(=O)CO)CC4)c[nH]c23)c(OCC2CC2)c1` [Example 202, cis-4-(2-Cyclopropylmethoxy-4-methoxy-phenyl)-5H-pyrrolo[3,2-d]pyrimidine-7-carboxylic acid [4-(2-hydroxy-acetylamino)-cyclohexyl]-amide], with 0.741 nM; and `COc1ccc(-c2ncnc3c(C(=O)N[C@H]4CC[C@@H](NC(=O)[C@H](C)O)CC4)c[nH]c23)c(OCC2CC2)c1` [Example 203, cis-4-(2-Cyclopropylmethoxy-4-methoxy-phenyl)-5H-pyrrolo[3,2-d]pyrimidine-7-carboxylic acid [4-((S)-2-hydroxy-propionylamino)-cyclohexyl]-amide], with 0.389 nM.
On to `COc1ccc(-c2ncnc3c(C(=O)N[C@H]4CC[C@@H](NC(=O)C5(O)CC5)CC4)c[nH]c23)c(OCC2CC2)c1` [Example 204, cis-4-(2-Cyclopropylmethoxy-4-methoxy-phenyl)-5H-pyrrolo[3,2-d]pyrimidine-7-carboxylic acid {-[(1-hydroxy-cyclopropanecarbonyl)-amino]-cyclohexyl}-amide], for which inhibition was half-maximal at 0.257 nM (IC50).
The result for `COc1ccc(-c2ncnc3c(C(=O)NC4CCN(C(=O)CO)CC4)c[nH]c23)c(OCC2CC2)c1` [Example 205, 4-(2-Cyclopropylmethoxy-4-methoxy-phenyl)-5H-pyrrolo[3,2-d]pyrimidine-7-carboxylic acid [1-(2-hydroxy-ethanoyl)-piperidin-4-yl]amide] reads 0.832 nM.

Usually IC50 stands for the point on the concentration scale where inhibition reaches its midpoint. Lower therefore signals greater potency in that assay.
